Results on four compounds are retold here after patent publication US20230022575A1, “BACTERIAL CONJUGATIVE SYSTEM AND THERAPEUTIC USES THEREOF” (SOCIÉTÉ DE COMMERCIALISATION DES PRODUITS DE LA RECHERCHE …, priority 2018, published 2023).

For assay [1], the system named is EcN. Briefly: Minimal inhibitory concentration (MIC) of EcN strains. The following applies: Escherichia coli; strain EcN. Format: cell-based, Escherichia coli Nissle 1917.
Assay [2] concerns KN01. The description is as above. Format: cell-based, Escherichia coli Nissle 1917. The following applies: Escherichia coli, read-out: Minimal inhibitory concentration (MIC).
In assay [3] the test system is KN02. Described as above. Format: cell-based, Escherichia coli Nissle 1917. The following applies: Escherichia coli, read-out: Minimal inhibitory concentration (MIC).
Assay [4] has as its system endogenous Enterobacteriaceae. Nature of the assay: Streptomycin treatment and EcN (KN01) colonization of the murine gut. It is filed as in vivo, mouse. The following applies: 1 g/L of Sm in drinking water, mice. The method, then: FIGS. 3.A to G. Streptomycin (Sm) treatment improves mouse gut colonization by Escherichia coli Nissle 1917 (EcN). The ability of different Sm concentrations to deplete endogenous Enterobacteriaceae (white area) and to promote EcN colonization (gray area) was evaluated by quantifying CFU in feces from mice treated with 0 mg/L (FIG. 3.A), 50 mg/L (FIG. 3.B), 100 mg/L (FIG. 3.C), 250 mg/L (FIG. 3.D), 450 mg/L (FIG. 3.E) and 1000 mg/L (FIG. 3.F) in drinking water starting at day −2. The colonization levels of KN01 in several sections of the intestinal tract of untreated (0) and streptomycin-treated ( ) mice was evaluated (FIG. 3.G). […]
Mouse model. All mice-related protocols were designed in compliance with our institution Animal Care Comity Guidelines and were strictly evaluated to avoid animal suffering. […] Animal weight and health was monitored daily throughout each experiment. […] For Sm treated mice groups, Sm working concentration was first evaluated to maximize Enterobacteriaceae clearance and EcN colonization (Kotula et al., 2014). […] Bacterial load was monitored in feces sampling at specified time points. […] Animals were then dissected to reveal the colonization pattern and gut bacterial content was evaluated by CFU. […]
Feces and tissues processing. […] CFUs/mg sample were calculated as a function of the sample measured weight. […]

Converted amounts (≈) assume the structure as drawn.

As to `O=C(N[C@H](CO)[C@H](O)c1ccc([N+](=O)[O-])cc1)C(Cl)Cl` [Cm, chloramphenicol], the MIC in assay [1] was less than 8 µg/mL; in assay [2], less than 8 µg/mL; in assay [3], 264 µg/mL (≈ 817 µM).
As to `CN[C@@H]1[C@H](O)[C@H](NC)[C@H]2O[C@@]3(O)C(=O)C[C@@H](C)O[C@H]3O[C@@H]2[C@H]1O` [Sp, spectinomycin], the MIC amounted to 50 µg/mL (≈ 150 µM) in assay [1] and 3000 µg/mL (≈ 9030 µM) in assay [2].
Regarding `[H]/N=C(/N)N[C@H]1[C@H](O)[C@@H](O)[C@H](O[C@@H]2O[C@@H](C)[C@](O)(C=O)[C@H]2O[C@@H]2O[C@@H](CO)[C@H](O)[C@@H](O)[C@@H]2NC)[C@@H](N/C(N)=N\[H])[C@@H]1O` [Sm, streptomycin], the MIC in assay [1] is 25 µg/mL (≈ 43 µM); in assay [2], 800 µg/mL (≈ 1380 µM); in assay [3] it was greater than 1600 µg/mL. In addition, the “Enterobacteriaceae clearance and KN01 colonization” value in assay [4] is listed as “cleared Enterobactericeae while allowing stable colonization of the KN01 strain”.
With `CC1(C)S[C@@H]2[C@H](NC(=O)[C@H](N)c3ccccc3)C(=O)N2[C@H]1C(=O)O` [Ap, ampicillin], the MIC in assay [1], in assay [2] and in assay [3] was less than 25 µg/mL throughout.
